One molecule from patent US12570612B2, “Substituted nitrogen heterocyclic compound and anesthetic effect thereof” (priority 2019, dated 2026) can be followed below.

Data set [1] concerns Sprague-Dawley rats. The experiment in a line: animal or person. It is filed as in vivo. The note with it: rats. An excerpt: Evaluating indicator: The end point of anesthesia: the disappearance of forepaw righting reflex (lorr) was used as the end point of anesthesia; General anesthesia effect: the disappearance of forepaw righting reflex in rats lasting for 30 seconds is taken as the index of general anesthesia effect; Anesthesia recovery index: the recovery of rat forepaw righting reflex was used as the index of anesthesia recovery.

Data set [2] concerns Sprague-Dawley rats. Description: Pharmacological effect and adverse reactions under the equivalent dose (2ED50), Group D compounds. The class given is in vivo. The source says: Evaluation index: onset time: from the completion of drug injection to the disappearance of forepaw righting reflex in rats; Duration of anesthesia: the time from the disappearance of rat forepaw righting reflex to the recovery of rat forepaw righting reflex; Recovery time of anesthesia: the time from the […] to complete recovery;

The test system of data set [3] is adrenal cortex function. The experiment in a line: Adrenocortical function in rats: corticosterone after dexamethasone and ACTH, Group D compounds. As to conditions: for Baseline(S1) corticosterone concentration: before drug. The method, then:
Instruments and Equipment: multi-function ion meter (METTLER TOLEDO, models: SevenMulti), pipetting gun (Eppendorf, specifications: 1000 ul, 200 ul, 100 ul, 10 ul), electronic balance (model: ME215S, manufacturers: Sartorius, Germany), the timer. Experimental Method: Adult male Sprague-Dawley rats (250-300 g) were selected for the experiment (n=8), all the experiment were started in the morning. Place indwelling needles in tail vein of rats and inject dexamethasone (0.5 mg/kg). The first time of blood collection (S1) is in two hours later, and give dexamethasone (0.2 mg/kg). […] All the drugs were administered in a volume of 0.6 ml and at a rate of 0.1 ml/s. 15 min later, exogenous ACTH (25 ug/kg) was injected. Another blood sample was collected after 30 min (S2). The blood samples were left standing at room temperature for 30-60 min, followed by centrifugation at 3500 rpm for 10 min. The supernatant was taken and centrifuged again at 15000 rpm for 5 min before being frozen and stored in a −20° C. refrigerator.
Evaluation indexes: The concentration of the corticosterone in the supernatant of rats before and after given drugs.

Data set [4] concerns SD rats. On the procedure:
Experimental Methods: Adult male SD rats with body weight ranging from 250 g to 350 g were selected for continuous infusion test.
Evaluation indexes: the time from the beginning of continuous infusion to the […] of sedation in rats; the time from the cessation of infusion to the restoration of the forepaw turning reflex after 1 hour of continuous infusion; the time from the cessation of infusion to the complete restoration of rats after 1 hour of continuous infusion.

The subject of data set [5] is Sprague-Dawley rats. The class given is in vivo. The note with it: tail vein.
Where [6] appears, read: equivalent dose (2 × ED50), number of rats of n = 8.
Setting [7] is: after 1 hour continuous infusion at 2 times the MIR, SD rats.
Where [8] appears, read: continuous infusion 2 x MIR 1 hour, rats affected/rats.

SMILES strings stand for the structures.

With `CCOC(OCC)(OCC)C(=O)c1cncn1[C@H](C)c1ccccc1` [Compound D76], the ED50 result in data set [1] (LORR, up and down method, tail vein, class symbols) is given as “++ (++ indicates that the measured ED50 is in the range of 0.50-1.00 mg/kg (excluding 0.50 mg/kg, including 1.00 mg/kg))”. In addition, in data set [1], the Approximate therapeutic index is listed as more than 31.8. Further, in data set [2] (2ED50, tail vein, rats, n=8), the Righting reflex duration turned out to be 1.67 ± 1.32 min and the Sedation duration is reported as 6.44 ± 1.82 min. Moreover, the Onset time in data set [2] (2ED50, tail vein, rats, n=8, unit min) was less than 1 min. Further, in data set [2] (setting [6]), the “Adverse reaction: Convulsions” value is listed as 0; the “Adverse reaction: Cough, broken-winded” value worked out at 0; the “Adverse reaction: Euphoria” value is recorded as 0; the “Adverse reaction: Four limbs rigidity” value worked out at 2. Also, in data set [2] (setting [6]), the “Adverse reaction: Red urine” value was 8; the “Adverse reaction: Slower breathing, Tetany convulsion” value is 0; the “Adverse reaction: Systemic stiffness, Convulsions, Opisthotonus” value is on record as 8; the “Adverse reaction: Tongue stretching” value amounted to 0. The “Adverse reaction: Tremor” value in data set [2] (setting [6]) is 0. Besides, the “Baseline(S1) corticosterone concentration” value in data set [3] (Table 17 printed a second time) was 153.23 ± 30.91. Moreover, the “Give ACTH 30min later(S2) corticosterone concentration” value in data set [3] (drug at 2ED50, 30 min after ACTH 25 ug/kg) was determined as 277.88 ± 34.56. The “Give ACTH 30min later(S2) corticosterone concentration” value in data set [3] (drug at 2ED50, 30 min after ACTH, Table 17 printed a second time) came to 277.88 ± 34.56. Besides, the “Baseline(S1) corticosterone concentration” value in data set [3] (two hours after dexamethasone 0.5 mg/kg) was 153.23 ± 30.91. Moreover, in data set [4] (setting [7]), the “After the infusion is stopped: Righting reflex recovery time” value is 15 to 25 min and the “Recovery time after stopping infusion” value is 25 to 40 min. In addition, in data set [4] (setting [8]), the “Types and incidence of adverse reactions: Hindlimb rigidity” value was “rigidity(2/6)”; the “Types and incidence of adverse reactions: Red urine” value is “Red urine(6/6), Hindlimb”. The Sedation onset time in data set [4] (continuous tail vein infusion at 2 times the MIR, SD rats) is reported as less than 5 min. In data set [5], this molecule yielded a Minimal lethal dose of more than 11.5 mg/kg.
